pIC50: −log10 of the molar value.
Legend:
Adenosine receptor A2a = Adenosine receptor A2a (Homo sapiens, UniProt P29274); assay: Measurement of A2A or A2B Binding Affinity Using Radioligand Binding
Procedure: (§1) Method (A): 148 μL (5 μg/mL) membranes (Perkin Elmer, Cat. No. RBHA2aM400UA) and 2 μL compounds of the invention to be tested (test compound) were transferred to individual wells of a 96-well polypropylene assay plate and incubated for 15 to 30 min at room temperature. [3H] SCH58261 ((7-(2-phenylethyl)-5-amino-2-(2-furyl)-pyrazolo-[4,3-e]-1,2,4-triazolo[1,5-c]pyrimidine)) was diluted in assay buffer (50 mM Tris pH 7.4, 10 mM MgCl2, 0.005% Tween20) to a concentration of 4 nM and 50 μL transferred to each well of the assay plate. To define total and non-specific binding, wells containing 1% DMSO and 1 μM ZM241385 (Tocris Bioscience, Cat. No. 1036) respectively, were also included. The assay plate was incubated at room temperature for 60 min with agitation. […] The plate was incubated for at least 20 min, and then the amount of radioactivity remaining in each well was determined using a TopCount (Perkin Elmer) scintillation counter. After normalization to total and non-specific binding, the percent effect at each compound concentration was calculated. The plot of percent effect versus the log of compound concentration was analyzed electronically using a 4-parameter logistic fit based on the Levenberg-Marquardt algorithm to generate IC50 values.

Adenosine receptor A2b = biological target: T1, Adenosine receptor A2b (Homo sapiens, UniProt P29275); assay: as above
T1 sequence (P29275 whole entry): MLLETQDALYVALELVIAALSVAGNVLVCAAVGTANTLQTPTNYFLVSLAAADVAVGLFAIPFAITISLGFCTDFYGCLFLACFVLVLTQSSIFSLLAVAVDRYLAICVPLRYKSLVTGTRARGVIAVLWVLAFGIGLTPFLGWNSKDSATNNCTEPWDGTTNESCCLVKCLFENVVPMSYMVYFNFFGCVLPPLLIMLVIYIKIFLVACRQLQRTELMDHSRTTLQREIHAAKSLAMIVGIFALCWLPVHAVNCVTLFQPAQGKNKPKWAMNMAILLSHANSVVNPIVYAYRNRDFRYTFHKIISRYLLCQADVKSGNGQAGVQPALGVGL
Procedure: as §1

Chain of Adenosine receptor A2a (P29274 whole entry): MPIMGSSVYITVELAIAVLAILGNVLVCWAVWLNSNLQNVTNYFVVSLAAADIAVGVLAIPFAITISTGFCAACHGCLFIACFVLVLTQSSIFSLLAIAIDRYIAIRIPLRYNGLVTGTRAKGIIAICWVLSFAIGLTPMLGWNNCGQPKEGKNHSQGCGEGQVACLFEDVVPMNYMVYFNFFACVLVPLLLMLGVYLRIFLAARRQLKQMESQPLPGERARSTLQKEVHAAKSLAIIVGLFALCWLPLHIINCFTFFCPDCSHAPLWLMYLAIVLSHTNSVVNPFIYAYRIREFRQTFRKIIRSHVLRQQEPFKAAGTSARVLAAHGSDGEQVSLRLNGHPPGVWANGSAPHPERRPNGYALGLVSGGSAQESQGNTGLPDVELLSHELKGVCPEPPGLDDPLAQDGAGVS

- pIC50 (Adenosine receptor A2a): 7.96
- pIC50 (Adenosine receptor A2b): 7.09
Compound: COc1cccc2c1nc(N)n1nc(CCS(=O)(=O)C(F)(F)F)nc21 [US20240076297, Example 13.5]
